Experimental data as given in patent US9499601B2, “Molecular probe for sphingolipids” (Agency for Science, Technology and Research, priority 2006, dated 2016).
Where no end group is shown, it is not given here.

How the values were obtained:
neuroblastoma cells = experiment: Live-cell uptake after glycosphingolipid depletion with Fumonisin B1; format: cell-based, human; conditions: 10 μM FB1
[1] = Lipid-protein overlay (fat blot); format: binding; conditions: Sphingostrips, relatively low amounts of lipids (100 nmole equivalents)
[2] = system: detergent resistant membrane fractions from human neuroblastomas, SH-SY5Y; experiment: Dot blot binding to isolated DRM density-gradient fractions; conditions: fractions 1-12, 1 top (detergent insoluble)
SH-SY5Y neuroblastoma = experiment: Live-cell uptake under cholesterol depletion (MβCD); format: cell-based, human; conditions: only after 2 h of cholesterol depletion
[3] = system: liposomes of raft-like composition (SM:Ch:POPC) with or without GM1, GD1a, GCB; POPC liposomes; experiment: Liposome binding, fluorescence retained after centrifugal filtration; conditions: control
[4] = Lipid-protein overlay (fat blot); format: binding
[5] = Lipid-protein overlay (fat blot); format: binding; remark: listed apart in the source
[6] = Lipid-protein overlay (fat blot); format: binding; remark: listed apart in the source
[7] = Lipid-protein overlay (fat blot); format: binding, bovine
[8] = system: Drosophila c6 neuronal cells; experiment: Labelling of Drosophila c6 neuronal cells with SBD, SBD* and SBD^scr peptides; format: cell-based
Drosophila c6 cells = experiment: Cholesterol depletion measured with Amplex Red Cholesterol Assay kit; format: cell-based; conditions: for reduction of cholesterol: 10 mM, 30 min, whole cell lysates
Experimental: Cholesterol depletion and overload: Cells were incubated in 4 mM or 10 mM Methyl-β-cyclo-dextrin (MβCD) (Sigma, USA) for 30 min in serum-free medium, and washed. AMPLEX RED™ Cholesterol Assay kit (Invitrogen) was used to measure cholesterol concentrations in cell extracts before OPTIPREP™ gradient formation and later on DRM fractions generated. For cholesterol excess, 10 mM MβCD-cholesterol-complexes were prepared as described previously and incubated with cells at 25° C. for 30 min before labelling. After treatment cells were further incubated in complete medium with FBS.
Drug treatments: For cholesterol depletion cells were incubated in 10 mM Methyl-b-cyclo-dextrin (MbCD) (Sigma, USA) for 30 min in serum-free medium, and washed. AMPLEX RED™ Cholesterol Assay kit (Invitrogen) was used to measure cholesterol concentrations in cell extracts before OPTIPREP™ gradient formation and later on DRM fractions generated.
Treatments that inhibit cholesterol synthesis or that remove cholesterol from membranes are known to disrupt lipid rafts. Methyl-β-cyclo-dextrin (MβCD) was used to deplete Drosophila c6 (FIG. 13) and neuroblastoma cells (data not shown) of cholesterol and related sterols (see Methods), and looked at the effect on SBD binding. First, the effectiveness of the MβCD treatment was tested by measuring total cholesterol levels using the AMPLEX RED™ kit (Invitrogen). On c6 cells, cholesterol was reduced by 42% after 30 min, and the distribution of the remaining cholesterol became more uniform across the density gradient (FIG. 13C).

[9] = peptide at higher concentrations (20 μM)
[10] = peptide at higher concentrations (20 μM), listed as mutated peptide
[11] = spotted strips, 1000-2000 nmole equivalents lipid
[12] = spotted strips, 1000-2000 nmole equivalents lipid, listed as scrambled version of the peptide

## CtxB [reference compound]
Neuroblastoma cells
  uptake after Fumonisin B1 (FB1) treatment: not affected
[1]
  interaction with GM1: recognize
[2]
  binding to density-gradient fractions (dot blot): typical two-peak distribution

## CtxB-Alexa594
SH-SY5Y neuroblastoma
  uptake under cholesterol depletion: reduced rate of uptake
[3]
  retention on GM1 liposomes compared with GD1a or no glycolipid: retained more strongly

## DAEFAHDSGAEVHHQELVFFAEDVG [SBD**-myc]
[4]; peptide at 5 μM
  interaction with GD1a: fails to show any interaction
[4]; [9]
  interaction with GD1a: only weakly interacts
[4]; [10]
  interaction with GD1a: bound very weakly
[5]; peptide at 5 μM
  interaction with SM: fails to show any interaction
[5]; [9]
  interaction with SM: fails to show any interaction
[5]; [10]
  interaction with SM: not
[6]; peptide at low concentrations
  interaction with GD1b: very weakly
[7]; peptide at low concentrations
  interaction with galactocerebrosides: interacted

## FYHDESEFGHAVEQFGRDVEAVHDL (not fully specified; also: fluorophore, identity and site not given here) [SBD^scr]
[8]; Oregon Green conjugates, 10 μM each
  internalized punctae (number and intensity): much reduced
[8]; c6 cells (FIG. 1B)
  concentration needed for binding to cells: ≥ 50 µM

## FYHDESEFGHAVEQFGRDVEAVHDL [SBD-scr-myc]
[4]; [11]
  interaction with GD1a: bind
[4]; [12]
  interaction with GD1a: interacted approximately as well
[5]; [11]
  interaction with sphingomyelin: interacted approximately as well
[6]; [11]
  interaction with GD1b: bind
[6]; [12]
  interaction with GD1b: interacted approximately as well
[7]; [11]
  interaction with galactocerebrosides: bind
[1]; listed as SBD scr-myc
  interaction with GM1: interact
[1]; listed as SBD-scr
  interaction with GM1: showed signal

## Methyl-β-cyclo-dextrin [MβCD]
Drosophila c6 cells
  reduction of cholesterol: 42%
Drosophila c6 cells; listed as M[…]CD
  reduction of cholesterol: over 40%
Drosophila c6 cells; Example 1
  depletion of total cholesterol: 40%

## Transferrin-Alexa594: marker of clathrin-mediated uptake
Neuroblastoma cells
  uptake after Fumonisin B1 (FB1) treatment: not significantly altered
Neuroblastoma cells; listed as Tfr
  uptake after Fumonisin B1 (FB1) treatment: essentially unaltered

B1: Lysenin: sphingomyelin-binding protein toxin from earthworm (protein, UniProt O18423 1-297, looked up)
Lysenin: MSAKAAEGYEQIEVDVVAVWKEGYVYENRGSTSVDQKITITKGMKNVNSETRTVTATHSIGSTISTGDAFEIGSVEVSYSHSHEESQVSMTETEVYESKVIEHTITIPPTSKFTRWQLNADVGGADIEYMYLIDEVTPIGGTQSIPQVITSRAKIIVGRQIILGKTEIRIKHAERKEYMTVVSRKSWPAATLGHSKLFKFVLYEDWGGFRIKTLNTMYSGYEYAYSSDQGGIYFDQGTDNPKQRWAINKSLPLRHGDVVTFMNKYFTRSGLCYDDGPATNVYCLDKREDKWILEVVG
[5]; Sphingostrips
  interaction with Sphingomyelin (spot 5): recognize
[2]
  binding to density-gradient fractions (dot blot): bound to non-DRM fractions
